Legend:
hERG channel = target: T1, hERG channel (Homo sapiens, UniProt Q12809); assay: PatchXpress hERG inhibition assay; format: cell-based; conditions: @ 1 μM; CHO cells expressing hERG
T1 construct: expressed in transfected cells; host or cells: CHO cells
Experimental: The detailed method to quantify hERG channel inhibition by the automated patch clamp system PatchXpress® 7000A (Molecular Devices, Sunnyvale, Calif.) has been described by Guo et al.^12 In brief, Chinese hamster ovary (CHO) cells transfected with the human ether-a-go-go-related gene (hERG) was cultured in Ex-cell 302 media supplemented with 10% fetal bovine serum, 2 mM glutamine and 0.25 mg/ml geneticin and maintained in a CO2 incubator at 37° C. For patch clamp electrophysiology, the external buffer contained (in mM): 150 NaCl, 10 Hepes, 4 KCl, 1.2 CaCl2, 1 MgCl2, pH 7.4 adjusted with […] and the internal recording solution contained (in mM): 140 KCl, 6 EGTA, 5 Hepes, MgCl2, 5 ATP-Na2, pH 7.2 adjusted with KOH. Once the cell was loaded in the recording chamber and formed a giga ohm seal with the planar glass electrodes (Sealchip™), a whole-cell configuration was achieved by rupturing the cell membrane. The membrane potential was then clamped at −80 mV and the hERG channel activated by a 1-second depolarizing pulse delivered at 0.1 Hz, the hERG current was measured during the 500 ms-repolarizing pulse to −40 mV. After an acceptable hERG current recording was obtained, the cell was first exposed to 0.3% DMSO as the vehicle control, followed by the test article in three ascending, full-log interval concentrations and finally E-4031 at 1 μM (as the positive control) to block the hERG current completely. Each test article was tested on three or more cells and at concentrations up to 30 μM or the solubility limit determined the BD Gentest™ solubility scanner. The inhibition of hERG current at each concentration was normalized to that recorded in the vehicle control, and fitted with Hill equation to calculate IC20 and/or IC50.

[1] = target: T2, recombinant human cathepsin E (Homo sapiens, UniProt P14091); assay: Cathepsin E fluorescent substrate kinetic assay; format: biochemical; conditions: pH 4.5
T2 construct: purchased R&D Systems
T2 sequence (P14091 54-396): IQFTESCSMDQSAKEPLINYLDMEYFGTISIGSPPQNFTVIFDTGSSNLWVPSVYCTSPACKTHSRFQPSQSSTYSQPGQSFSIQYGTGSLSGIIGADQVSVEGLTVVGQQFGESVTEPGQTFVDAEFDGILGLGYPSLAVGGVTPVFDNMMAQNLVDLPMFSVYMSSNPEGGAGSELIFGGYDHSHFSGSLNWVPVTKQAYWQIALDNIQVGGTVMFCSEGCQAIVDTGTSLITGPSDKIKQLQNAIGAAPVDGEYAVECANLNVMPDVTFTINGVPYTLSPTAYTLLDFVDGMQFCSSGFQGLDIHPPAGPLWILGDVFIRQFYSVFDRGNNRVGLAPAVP
From the text: (§1) The MR121 fluorescence assays described below are based on the fact that MR121 forms a non-fluorescent ground state complex with tryptophan. In solution this formation occurs at millimolar concentrations of tryptophan. The mechanism can be used to design a generic biochemical assay for proteases. A substrate peptide is labeled at the N-terminus with tryptophan and at the C-terminus with the fluorophore MR121 (for cathepsin D the 10 amino acid peptide WTSVLMAAPC-MR121 was used; for cathepsin E, MR121-CKLVFFAEDW was used). In absence of protease activity, the substrates remain intact and the MR121 fluorescence is reduced by the high local Trp-concentration. If the substrates are cleaved by the enzymes the MR121 fluorescence is recovered.
(§2) The fluorescent substrate cathepsin D and cathepsin E kinetic assays were performed at room temperature in 384-well microtiter plates (black with clear flat bottom, non binding surface plates from Corning) in a final volume of 51 μl. The test compounds were serially diluted in DMSO (15 concentrations, 1/3 dilution steps) and 1 μl of diluted compounds were mixed for 10 min with 40 μl of cathepsin D (from human liver, Calbiochem) diluted in assay buffer (100 mM sodium acetate, 0.05% BSA, pH 5.5; final concentration: 200 nM) or with 40 μl of recombinant human cathepsin E (R&D Systems) diluted in assay buffer (100 mM sodium acetate, 0.05% BSA, pH 4.5; final concentration: 0.01 nM). After addition of 10 μl of the cathepsin D substrate WTSVLMAAPC-MR121 diluted in cathepsin D assay buffer (final concentration: 300 nM) or […] cathepsin E substrate MR121-CKLVFFAEDW diluted in cathepsin E assay buffer (final concentration: 300 nM), the plates were strongly shaken for 2 minutes. The enzymatic reaction was followed in a plate: vision reader (Perkin Elmer) (excitation wavelength: 630 nm; emission: 695 nm) for at least 30 minutes in a kinetic measurement detecting an increase of MR121 fluorescence during the reaction time. The slope in the linear range of the kinetic was calculated and the IC50 of the test compounds were determined using a four parameter equation for curve fitting.

BACE1 = target: T3, BACE1 (Homo sapiens, UniProt P56817); assay: Cellular Aβ-lowering assay (Aβ40 ELISA, HEK293 cells expressing human APP695); format: cell-based; conditions: HEK293 cells stably expressing human APP695; Aβ40 in supernatant after 18-20 hrs; read-out: BACE1 cell act. Aβ40 IC50
T3 construct: Human HEK293 cells which are stably transfected with a vector expressing a cDNA of the human APP wt gene (APP695); endogenous in cells; host or cells: HEK293 stably expressing human APP695 wt
T3 sequence (P56817 46-501): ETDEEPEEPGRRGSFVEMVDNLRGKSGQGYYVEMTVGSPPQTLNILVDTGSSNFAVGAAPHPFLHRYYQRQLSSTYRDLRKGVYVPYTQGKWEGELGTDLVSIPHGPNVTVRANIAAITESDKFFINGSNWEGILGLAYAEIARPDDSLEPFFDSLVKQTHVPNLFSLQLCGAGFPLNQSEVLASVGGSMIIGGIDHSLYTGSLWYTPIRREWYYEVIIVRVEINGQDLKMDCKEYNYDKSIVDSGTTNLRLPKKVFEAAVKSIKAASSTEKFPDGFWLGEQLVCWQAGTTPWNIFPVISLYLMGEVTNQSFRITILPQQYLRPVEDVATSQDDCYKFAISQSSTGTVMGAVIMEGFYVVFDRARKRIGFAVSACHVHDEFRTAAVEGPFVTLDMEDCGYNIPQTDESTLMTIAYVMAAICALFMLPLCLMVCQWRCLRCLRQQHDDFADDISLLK
Experimental: Human HEK293 cells which are stably transfected with a vector expressing a cDNA of the human APP wt gene (APP695) were used to assess the potency of the compounds in a cellular assay. The cells were seeded in 96-well microtiter plates in cell culture medium (Iscove, plus 10% (v/v) fetal bovine serum, glutamine, penicillin/streptomycin) to about 80% confluence and the compounds were added at a 10× concentration in 1/10 volume of medium without FCS containing 8% DMSO (final concentration of DMSO was kept at 0.8% v/v). After 18-20 hrs incubation at 37° C. and 5% CO2 in a humidified incubator the culture supernatant was harvested for the determination of Aβ40 concentrations. 96 well ELISA plates (e.g., Nunc MaxiSorb) were coated with monoclonal antibody which specifically recognize the C-terminal end of Aβ40^10. After blocking of non-specific binding sites with e.g. 1% BSA and washing, the culture supernatants were added in suitable dilutions together with a horseradish peroxidase-coupled Aβ detection antibody (e.g., antibody 4G8, Senetek, Maryland Heights, Mo.) and incubated for 5 to 7 hrs. Subsequently the wells of the microtiter plate were washed extensively with Tris-buffered saline containing 0.05% Tween 20 and the assay was developed with tetramethylbenzidine/H2O2 in citric acid buffer. After stopping the reaction with one volume 1 N H2SO4 the reaction was measured in an ELISA reader at 450 nm wavelength. The concentrations of Aβ in the culture supernatants were calculated from a standard curve obtained with known amounts of pure Aβ peptide.

[2] = target: T4, cathepsin D (from human liver) (Homo sapiens, UniProt P07339); assay: Cathepsin D fluorescent substrate kinetic assay; format: biochemical; conditions: pH 5.5
T4 construct: cathepsin D (from human liver, Calbiochem); purchased Calbiochem; host or cells: human liver (tissue-purified)
T4 sequence (P07339 65-162 limits assumed): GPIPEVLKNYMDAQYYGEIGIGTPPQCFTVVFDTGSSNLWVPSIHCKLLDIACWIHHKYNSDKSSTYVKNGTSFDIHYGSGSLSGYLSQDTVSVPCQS
T4 sequence (P07339 169-412 limits assumed): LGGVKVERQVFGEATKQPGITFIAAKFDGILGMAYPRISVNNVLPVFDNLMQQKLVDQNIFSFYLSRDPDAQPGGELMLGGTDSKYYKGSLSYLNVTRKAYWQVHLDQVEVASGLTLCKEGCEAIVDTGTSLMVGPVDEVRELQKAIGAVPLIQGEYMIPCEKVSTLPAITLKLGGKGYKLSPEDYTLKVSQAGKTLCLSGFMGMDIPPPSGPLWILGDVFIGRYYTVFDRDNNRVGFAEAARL
From the text: as §1, §2

T1 sequence (Q12809 whole entry): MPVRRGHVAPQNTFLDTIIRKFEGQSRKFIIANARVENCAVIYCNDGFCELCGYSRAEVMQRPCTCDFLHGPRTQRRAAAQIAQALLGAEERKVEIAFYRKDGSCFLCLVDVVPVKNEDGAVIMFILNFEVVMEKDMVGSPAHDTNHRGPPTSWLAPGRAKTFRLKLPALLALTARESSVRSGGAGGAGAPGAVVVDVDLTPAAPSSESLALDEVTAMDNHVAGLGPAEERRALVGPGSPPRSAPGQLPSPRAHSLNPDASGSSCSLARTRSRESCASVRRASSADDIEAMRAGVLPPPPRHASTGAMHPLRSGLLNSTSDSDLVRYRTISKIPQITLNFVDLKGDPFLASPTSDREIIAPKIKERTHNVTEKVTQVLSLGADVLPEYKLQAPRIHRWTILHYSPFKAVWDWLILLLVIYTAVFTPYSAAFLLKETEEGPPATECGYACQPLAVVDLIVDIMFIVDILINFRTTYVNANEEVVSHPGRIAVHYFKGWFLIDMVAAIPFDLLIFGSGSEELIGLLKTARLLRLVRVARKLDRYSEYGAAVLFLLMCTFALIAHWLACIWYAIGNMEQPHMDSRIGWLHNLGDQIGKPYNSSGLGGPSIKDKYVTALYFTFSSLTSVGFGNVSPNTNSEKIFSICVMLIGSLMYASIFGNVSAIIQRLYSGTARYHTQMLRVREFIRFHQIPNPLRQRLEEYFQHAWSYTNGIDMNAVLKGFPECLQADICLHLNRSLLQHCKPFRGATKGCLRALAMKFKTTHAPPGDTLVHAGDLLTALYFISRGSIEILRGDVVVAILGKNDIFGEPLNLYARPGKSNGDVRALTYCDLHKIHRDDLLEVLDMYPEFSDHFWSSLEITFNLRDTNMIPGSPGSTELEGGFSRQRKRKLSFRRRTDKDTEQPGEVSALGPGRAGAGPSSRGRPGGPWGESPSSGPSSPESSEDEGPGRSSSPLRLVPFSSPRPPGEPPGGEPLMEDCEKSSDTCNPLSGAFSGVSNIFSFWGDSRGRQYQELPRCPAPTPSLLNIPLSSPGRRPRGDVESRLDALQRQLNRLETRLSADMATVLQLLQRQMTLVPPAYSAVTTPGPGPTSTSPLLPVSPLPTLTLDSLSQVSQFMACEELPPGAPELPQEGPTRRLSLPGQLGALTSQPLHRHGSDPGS

| Compound | hERG inhibition (hERG channel) | IC50 [1] [µM] | IC50 (BACE1) [µM] | IC50 [2] [µM] |
| --- | --- | --- | --- | --- |
| CC#CCOc1cnc(C(=O)Nc2ccc(F)c([C@@]3(C)N=C(N)O[C@@H]4CCC(F)(F)[C@@H]43)c2)cn1 [Example 1, 5-But-2-ynyloxy-pyrazine-2-carboxylic acid [3-((4S,4aR,7aR)-2-amino-5,5-difluoro-4-methyl-4,4a,5,6,7,7a-hexahydro-cyclopenta[e][1,3]oxazin-4-yl)-4-fluoro-phenyl]-amide] | A (A = less than 50% inhibition @ 1 μM) | 97 | 0.0004 | 135 |
| C[C@]1(c2cc(NC(=O)c3ccc(C#N)cn3)ccc2F)N=C(N)O[C@@H]2CCCC(F)(F)[C@@H]21 [Example 8, 5-Cyano-pyridine-2-carboxylic acid [3-((4S,4aR,8aR)-2-amino-5,5-difluoro-4-methyl-4a,5,6,7,8,8a-hexahydro-4H-benzo[e][1,3]oxazin-4-yl)-4-fluoro-phenyl]-amide] | A (A = less than 50% inhibition @ 1 μM) | > 200 | 0.0022 | > 200 |
| C[C@]1(c2cc(NC(=O)c3ccc(C#N)cn3)ccc2F)N=C(N)O[C@@H]2CCC(F)(F)[C@@H]21 [Example 2, 5-Cyano-pyridine-2-carboxylic acid [3-((4S,4aR,7aR)-2-amino-5,5-difluoro-4-methyl-4,4a,5,6,7,7a-hexahydro-cyclopenta[e][1,3]oxazin-4-yl)-4-fluoro-phenyl]-amide] | A (A = less than 50% inhibition @ 1 μM) | 90 | 0.0015 | > 200 |

Reference: US9181232B2, “Difluoro-hexahydro-cyclopentaoxazinyls and difluoro-hexahydro-benzooxazinyls as BACE1 inhibitors” (Hoffmann-La Roche Inc., priority 2012, dated 2015)
